The text below walks through data of article PMC8126888 (RSC Medicinal Chemistry, 2020).

Series [1] in a line: in vitro. The conditions noted are these: human, HepG2 cells.
For series [2], the system named is Leishmania infantum MHOM/MA(BE)/67/ITMAP263 intracellular amastigotes. The experiment in a line: microbe, parasite or virus in culture. The note with it: Macrophage, in Mus musculus.
A short description of series [3]: in vitro. The note with it: human, microsomes, pH 7.4, HLM CLint (uL/min/mg), human liver microsomes. For orientation: Liver microsomes are a subcellular fraction often used to study metabolism.
The nature of series [4]: in vitro. The conditions noted are these: mouse, microsomes, pH 7.4, MLM CLint (uL/min/mg), mouse liver microsomes.
The nature of series [5]: in vitro. The note with it: PAMPA.
Series [6] deals with primary peritoneal mouse macrophages (PMM). The series can be described thus: cells. The note with it: Macrophage, read-out: PMM IC50 (uM).
Series [7] is described as follows: in vitro. The note with it: human, HFF-1 cells.
Series [8] concerns Trypanosoma cruzi, Tulahuen CL2, beta-galactosidase strain. The experiment in a line: microbe, parasite or virus in culture. The conditions noted are these: MRC5, read-out: T. cruzi Tulahuen C4 (LacZ) IC50 (uM).
A further series is described as follows: physchem. The conditions noted are these: HPLC, Ascentis Express RP Amide column, pH 7.4, eLogD, experimental.
Series [9] is described as follows: in vitro. The note with it: human.
[10] abbreviates: read-out: L. Inf. pIC50, from L. infantum intracellular amastigote IC50 (converted).
[11] abbreviates: read-out: L. infantum MHOM/MA(BE)/67/ITMAP263 intracellular amastigotes IC50 (uM), intracellular amastigotes.

Read-outs that look alike come from different tables or passages of the source. Bounds are passed on as bounds.

For orientation: microsomal CLint means the rate of metabolic loss divided by the concentration. The low end stands for greater metabolic stability, the high end for faster metabolism. By Papp is commonly meant a coefficient for how fast a substance crosses the barrier. The low end stands for slow passage, the high end for fast passage. Usually chromatographic logD stands for a lipophilicity value derived from retention on a column. Turning to `COc1ccc(CN(Cc2ccc(F)cc2)S(=O)(=O)c2cc(F)ccc2OCCN(C)C)cc1` [DNDI0003378485], the CC50 in “in vitro [1]” was 9.1 µM; in the series “in vitro [7]” it was 1.95 µM. Moreover, the IC50 in series [2] (setting [10]) is 3.24 µM; in series [2] (setting [11]), 3.24 µM; in series [6], 8 µM; in series [8], 6.96 µM. Moreover, the microsomal CLint at 0.5 μM amounted to 183 µL/min/mg in “in vitro [3]” and 1080 µL/min/mg in “in vitro [4]”. The same compound gave a Papp in the series “in vitro [5]” of 0.29 ×10⁻⁶ cm/s. This compound had a chromatographic logD in “physchem” of 5. In the series “in vitro [9]”, this compound showed a CC50 at 3 days of 6.43 µM.

In the case of `O=S(=O)(c1ccccn1)N(Cc1ccccc1)Cc1ccccc1` [DNDI0003389646], the CC50 in “in vitro [1]” is greater than 64 µM; in “in vitro [7]” it was 33.8 µM. Moreover, the IC50 in series [2] (setting [10]) was 16.2 µM; in [2] (setting [11]), 16.1 µM; in series [6], greater than 64 µM; in series [8] it was 27.7 µM. Besides, the results for the microsomal CLint at 0.5 μM in “in vitro [3]” and in the series “in vitro [4]” were 218 µL/min/mg and 449 µL/min/mg, respectively. This compound also gave a Papp in “in vitro [5]” of 9.55 ×10⁻⁶ cm/s. The compound further had a chromatographic logD in the series “physchem” of 4. This compound came in with a CC50 at 3 days in “in vitro [9]” greater than 64 µM.

In the case of `COCCNC(=O)c1ccc(OC)c(S(=O)(=O)N(Cc2ccc(F)cc2)Cc2ccc(F)cc2)c1` [DNDI0003371177], the results for the CC50 in “in vitro [1]” and in the series “in vitro [7]” were 54.1 µM and greater than 64 µM, respectively. Besides, the IC50 in series [2] (setting [10]) was 1.02 µM; in series [2] (setting [11]) it was 1.03 µM; in series [6], greater than 64 µM; in series [8] it was 40.4 µM. The values for the microsomal CLint at 0.5 μM in “in vitro [3]” and in the series “in vitro [4]” were 407 µL/min/mg and 1670 µL/min/mg, respectively. In “in vitro [5]”, this compound came in with a Papp of 8.63 ×10⁻⁶ cm/s. This compound also registered a chromatographic logD in the series “physchem” of 4.1. This compound registered a CC50 at 3 days in “in vitro [9]” greater than 64 µM.

Turning to `COc1ccc(Cl)cc1S(=O)(=O)N(Cc1ccccc1)CC(O)c1ccc(F)cc1` (stereo not shown) [DNDI0003389316], the CC50 in “in vitro [1]” was found to be 51.5 µM; in “in vitro [7]” it was 4.75 µM. Also, the IC50 in series [2] (setting [10]) was 12 µM; in [2] (setting [11]) it was 12 µM; in series [6] it was greater than 64 µM; in series [8], 17.8 µM. Moreover, the figures for the microsomal CLint at 0.5 μM in “in vitro [3]” and in the series “in vitro [4]” were 298 µL/min/mg and 147 µL/min/mg, respectively. The Papp in “in vitro [5]” amounted to 4 ×10⁻⁶ cm/s. For the same compound, in the series “physchem”, the chromatographic logD was 3.1. This compound gave a CC50 at 3 days in “in vitro [9]” of 23.5 µM.

On to `CNCCOc1ccc(F)cc1S(=O)(=O)N(Cc1ccc(F)cc1)Cc1ccc(F)cc1` [DNDI0003389318], for which the figures for the CC50 in the series “in vitro [1]” and in the series “in vitro [7]” were 6.84 µM and 7.25 µM, respectively. The IC50 in series [2] (setting [10]) was 2.4 µM; in series [2] (setting [11]) it was 2.38 µM; in [6], 8 µM; in series [8], 5.11 µM. The microsomal CLint at 0.5 μM in the series “in vitro [3]” is 46 µL/min/mg; in the series “in vitro [4]”, 84 µL/min/mg. Further, the Papp in “in vitro [5]” was found to be 0.43 ×10⁻⁶ cm/s. The chromatographic logD in the series “physchem” was determined as 5.3. In the series “in vitro [9]”, this compound yielded a CC50 at 3 days of 4.22 µM.

As for `COc1ccc(C(=O)N2CCOCC2)cc1S(=O)(=O)N(Cc1ccc(F)cc1)Cc1ccc(F)cc1` [DNDI0003371178], the values for the CC50 in “in vitro [1]” and in the series “in vitro [7]” were 44.5 µM and 46.9 µM, respectively. Further, the IC50 is 1.02 µM in series [2] (setting [10]), 1.02 µM in series [2] (setting [11]), greater than 64 µM in [6] and 50.7 µM in series [8]. The microsomal CLint at 0.5 μM in the series “in vitro [3]” was 997 µL/min/mg; in “in vitro [4]”, 984 µL/min/mg. In addition, the Papp in the series “in vitro [5]” turned out to be 9.35 ×10⁻⁶ cm/s. For the same compound, in the series “physchem”, the chromatographic logD is 4. In “in vitro [9]”, the CC50 at 3 days is greater than 64 µM.

For the compound `COc1ccc(OC)c(S(=O)(=O)N(Cc2ccc(F)cc2)Cc2cnc(OC)nc2OC)c1` [DNDI0003389321], the CC50 in the series “in vitro [1]” and in the series “in vitro [7]” was greater than 64 µM throughout. The IC50 is 53.7 µM in series [2] (setting [10]), 53.8 µM in series [2] (setting [11]), greater than 64 µM in series [6] and 27.8 µM in [8]. Besides, the microsomal CLint at 0.5 μM in the series “in vitro [3]” was 270 µL/min/mg; in “in vitro [4]”, 861 µL/min/mg. In the series “in vitro [5]”, this compound came in with a Papp of 15.2 ×10⁻⁶ cm/s. In addition, in the series “in vitro [9]”, the CC50 at 3 days was greater than 64 µM.

Take `COc1ccc(C(=O)N2CCOCC2)cc1S(=O)(=O)N(C)Cc1ccc(F)cc1` [DNDI0003389126]: the CC50 in “in vitro [1]” and in the series “in vitro [7]” was greater than 64 µM each time. Besides, the IC50 in [2] (setting [10]) was 57.5 µM; in series [2] (setting [11]), 57 µM; in series [6], greater than 64 µM; in [8] it was 41.4 µM. The microsomal CLint at 0.5 μM in the series “in vitro [3]” worked out at 70 µL/min/mg; in “in vitro [4]” it was 94 µL/min/mg. Moreover, the apparent permeability (Papp) in the series “in vitro [5]” is 16.6 ×10⁻⁶ cm/s. Further, the chromatographic logD in “physchem” was determined as 2.7. The CC50 at 3 days in “in vitro [9]” is greater than 64 µM.

`N#Cc1ccc(O)c(S(=O)(=O)N(Cc2ccc(F)cc2)Cc2ccc(F)cc2)c1` [DNDI0003389125]: the CC50 in “in vitro [1]” was greater than 64 µM; in “in vitro [7]”, 7.8 µM. Also, the IC50 in [2] (setting [10]) was 30.9 µM; in [2] (setting [11]), 30.7 µM; in [6], 45.2 µM; in series [8], 16.8 µM. For the same compound, the intrinsic metabolic clearance (microsomal CLint) at 0.5 μM in “in vitro [3]” amounted to 33 µL/min/mg; in “in vitro [4]” it was 366 µL/min/mg. The compound also had a Papp in “in vitro [5]” of 13.2 ×10⁻⁶ cm/s. In “physchem”, this compound came in with a chromatographic logD of 3.5. For the same compound, the CC50 at 3 days in the series “in vitro [9]” was 4 µM.

For the compound `COc1ccc(Cl)cc1S(=O)(=O)N(Cc1ccccc1)C(CO)CO` [DNDI0003389933], the CC50 in the series “in vitro [1]” and in “in vitro [7]” was greater than 64 µM in each case. Also, the IC50 in series [2] (setting [10]) is 57.5 µM; in series [2] (setting [11]), 57 µM; in series [6], greater than 64 µM; in [8], 14.3 µM. The microsomal CLint at 0.5 μM is 109 µL/min/mg in the series “in vitro [3]” and 253 µL/min/mg in the series “in vitro [4]”. The compound also returned a Papp in “in vitro [5]” of 13.2 ×10⁻⁶ cm/s. Further, in the series “physchem”, the chromatographic logD came out at 3.2. The compound further gave a CC50 at 3 days in “in vitro [9]” greater than 64 µM.

Take `COc1ccc(Cl)cc1S(=O)(=O)N(Cc1ccccc1)C(CO)c1ccc(F)cc1` (stereo not shown) [DNDI0003388149]: the CC50 in “in vitro [1]” was determined as 15.7 µM; in the series “in vitro [7]”, 1.25 µM. Besides, the IC50 was 1.7 µM in [2] (setting [10]), 1.69 µM in series [2] (setting [11]), greater than 64 µM in [6] and 15.8 µM in series [8]. Also, the results for the microsomal CLint at 0.5 μM in the series “in vitro [3]” and in “in vitro [4]” were 18 µL/min/mg and 38 µL/min/mg, respectively. In “in vitro [5]”, the apparent permeability coefficient (Papp) was found to be 3.4 ×10⁻⁶ cm/s. The compound also displayed a CC50 at 3 days in “in vitro [9]” of 21.6 µM.

For `COc1ccc(C#N)cc1S(=O)(=O)N(Cc1ccc(F)cc1)C1CCOCC1` [DNDI0003388084], the CC50 in the series “in vitro [1]” was greater than 64 µM; in “in vitro [7]”, 44.1 µM. Also, the IC50 is greater than 64 µM in series [2] (setting [10]), greater than 64 µM in series [2] (setting [11]), greater than 64 µM in series [6] and 53.1 µM in [8]. Further, the microsomal CLint at 0.5 μM turned out to be 194 µL/min/mg in the series “in vitro [3]” and 253 µL/min/mg in “in vitro [4]”. For the same compound, in the series “in vitro [5]”, the apparent permeability (Papp) came to 12.7 ×10⁻⁶ cm/s. In the series “in vitro [9]”, this compound displayed a CC50 at 3 days greater than 64 µM.

Take `COc1ccc(C(=O)N2CCOCC2)cc1S(=O)(=O)N(Cc1ccc(F)cc1)CC(C)C` [DNDI0003389127]: the CC50 in the series “in vitro [1]” was greater than 64 µM; in “in vitro [7]”, 8.25 µM. Moreover, the IC50 in series [2] (setting [10]) was 6.92 µM; in [2] (setting [11]) it was 6.86 µM; in [6], greater than 64 µM; in series [8], 39.1 µM. The microsomal CLint at 0.5 μM in “in vitro [3]” came out at 543 µL/min/mg; in “in vitro [4]”, 355 µL/min/mg. Besides, in the series “in vitro [5]”, the Papp came to 17.7 ×10⁻⁶ cm/s. Further, in “in vitro [9]”, the CC50 at 3 days was greater than 64 µM.
